pKi: −log10 of the molar value.
Columns and labels:
[1] = HLM stability (Low Activity, Alternative Method); type: in vitro ADME; settings: both sexes, human, liver microsomes, pH 7.4, Condition 1 column, values marked *: Low Activity, 0.50 mg protein/mL
Procedure: (§1) HLM Stability (Low Activity, Alternative Method). Pooled HLM from adult male and female donors (Corning 452117) were used. Microsomal incubations were carried out in multi-well plates. Liver microsomal incubation medium consisted of PBS (100 mM, pH 7.4), MgCl2 (1 mM), and NADPH (1 mM), with 0.50 mg of liver microsomal protein per mL. Control incubations were performed by replacing the NADPH-cofactor system with PBS. Test compounds (1 μM, final solvent concentration 1.0%) were incubated with microsomes at 37° C. with constant shaking. Six time points over 60 minutes were analyzed, with 60 μL aliquots of the reaction mixture being drawn at each time point. The reaction aliquots were stopped by adding 180 μL of cold (4° C.) acetonitrile containing 200 ng/mL tolbutamide and 200 ng/mL labetalol as internal standards (IS), followed by shaking for 10 minutes, and then protein sedimentation by centrifugation at 4000 rpm for 20 minutes at 4° C. Supernatant samples (80 μL) were diluted with water (240 μL) and analyzed for parent compound remaining using a fit-for-purpose liquid chromatography-tandem mass spectrometry (LC-MS/MS) method.
(§2) Data Analysis. The elimination constant (kel), half-life (t1/2) and intrinsic clearance (Clint) were determined in a plot of […] versus time, using linear regression analysis.

[2] = MLM stability (Low Activity); type: in vitro ADME, CD-1 mice; settings: male, CD-1, mouse, liver microsomes, pH 7.4, Condition 1 (Low Activity), 0.50 mg protein/mL
Procedure: as §1, with “MLM” for “HLM”, “Activity).” for “Activity, Alternative Method).”, “from” for “from adult”, “CD-1 mice (XenoTech M1000)” for “and female donors (Corning 452117)”
as §2

[3] = RLM stability (Low Activity); type: in vitro ADME, Sprague Dawley rats; settings: male, Sprague Dawley, rat, liver microsomes, pH 7.4, Condition 1 (Low Activity), 0.50 mg protein/mL
Procedure: as §1, with “RLM” for “HLM”, “Activity).” for “Activity, Alternative Method).”, “from” for “from adult”, “Sprague Dawley rats (XenoTech R1000)” for “and female donors (Corning 452117)”
as §2

[4] = target: MK-801 binding site of the N-methyl-D-aspartate receptor (NMDAR); experiment: NMDAR radioligand binding with [3H]MK-801, Method B; set-up: species or system Sprague Dawley rat; settings: MK-801 site, Method B, male Sprague Dawley rat cortex, 5.0 nM [3H]MK-801; read-out: NMDAR Ki ± SEM
Procedure: Radioligand Binding—Method B. Affinity of the test compounds for NMDAR was determined in radioligand binding experiments with [^3H]MK-801 by WuXi AppTec (Hong Kong) Limited, under the conditions described in Table 13.

[5] = target: T1, serotonin transporter (SERT) (Homo sapiens, UniProt P31645); experiment: Fluorescent substrate uptake inhibition, SERT; type: cell-based; settings: 10 μM, HEK293 cells expressing SERT
T1 construct: expressed in transfected cells; host or cells: HEK293
T1 sequence (P31645 whole entry, species assumed): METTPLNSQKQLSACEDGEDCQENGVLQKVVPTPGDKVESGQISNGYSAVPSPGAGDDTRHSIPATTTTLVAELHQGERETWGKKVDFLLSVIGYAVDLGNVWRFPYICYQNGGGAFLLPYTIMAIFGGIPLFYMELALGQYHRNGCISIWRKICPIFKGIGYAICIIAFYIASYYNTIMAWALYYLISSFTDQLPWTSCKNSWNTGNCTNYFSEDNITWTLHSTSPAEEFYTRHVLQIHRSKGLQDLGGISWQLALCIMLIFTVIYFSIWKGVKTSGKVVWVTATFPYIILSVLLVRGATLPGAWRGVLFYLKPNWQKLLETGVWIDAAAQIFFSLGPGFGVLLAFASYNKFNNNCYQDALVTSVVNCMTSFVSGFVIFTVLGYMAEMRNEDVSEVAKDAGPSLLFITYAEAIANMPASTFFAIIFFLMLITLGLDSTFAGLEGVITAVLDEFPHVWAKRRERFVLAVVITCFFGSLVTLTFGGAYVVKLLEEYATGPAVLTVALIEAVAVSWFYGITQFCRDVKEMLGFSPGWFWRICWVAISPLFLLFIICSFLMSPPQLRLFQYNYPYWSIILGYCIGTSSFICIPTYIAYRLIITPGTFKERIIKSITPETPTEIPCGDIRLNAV
Procedure: (§3) Uptake Inhibition. The ability of test compounds to block monoamine uptake by SERT, NET, DAT, and VMAT2 was determined using the Neurotransmitter Transporter Uptake Assay Kit manufactured by Molecular Devices (Cat #R8173). Briefly, stably transfected cells expressing the MAT of interest (HEK293 cells for SERT and NET; CHO cells for DAT) were grown and plated into 384-well plates at a concentration of 20,000 cells per well. Plates were then incubated for 16-20 h at 37° C. and 5% CO2. The medium was then aspirated and replaced with 25 μL of assay buffer (20 mM HEPES in HBSS, containing 0.1% BSA) containing the test compounds at the appropriate concentrations. Plates were then centrifuged at 300 rpm for 15 s and then incubated at 37° C. for 30 minutes. At this time, 25 μL of the proprietary fluorescent dye solution was added, the plates were incubated at 37° C. for 60 minutes, and then fluorescence was quantified on a plate reader (excitation wavelength=440 nm, emission wavelength=520 nm). The proprietary dye solution contains a mixture of 1) a fluorescent dye that mimics the endogenous substrates of MATs and is thereby actively transported to the intracellular compartment in the absence of an inhibitor and 2) a masking dye that inhibits the fluorescence of dye 1 in the extracellular compartment. Therefore, the overall fluorescence of the system increases as the fluorescent dye is transported into the cells.

[6] = target: T2, norepinephrine transporter (NET) (Homo sapiens, UniProt P23975); experiment: Fluorescent substrate uptake inhibition, NET; type: cell-based; settings: 10 μM, HEK293 cells expressing NET
T2 construct: expressed in transfected cells; host or cells: HEK293
T2 sequence (P23975 whole entry, species assumed): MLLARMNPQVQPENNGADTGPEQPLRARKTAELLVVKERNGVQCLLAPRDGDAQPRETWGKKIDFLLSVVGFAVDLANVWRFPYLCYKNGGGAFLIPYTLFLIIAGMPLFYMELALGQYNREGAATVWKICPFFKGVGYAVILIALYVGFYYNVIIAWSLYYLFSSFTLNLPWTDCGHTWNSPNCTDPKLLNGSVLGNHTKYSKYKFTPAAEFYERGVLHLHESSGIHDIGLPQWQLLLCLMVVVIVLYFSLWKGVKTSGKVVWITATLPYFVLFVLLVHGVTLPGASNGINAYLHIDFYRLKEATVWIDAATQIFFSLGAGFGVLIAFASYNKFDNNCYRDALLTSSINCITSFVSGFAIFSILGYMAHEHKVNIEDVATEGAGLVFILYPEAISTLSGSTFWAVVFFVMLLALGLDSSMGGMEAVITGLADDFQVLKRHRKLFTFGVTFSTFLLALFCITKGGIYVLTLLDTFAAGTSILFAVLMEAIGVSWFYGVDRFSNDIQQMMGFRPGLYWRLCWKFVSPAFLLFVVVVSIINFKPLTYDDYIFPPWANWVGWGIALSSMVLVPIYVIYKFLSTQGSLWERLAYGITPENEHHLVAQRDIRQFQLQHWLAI
Procedure: as §3

[7] = target: T3, dopamine transporter (DAT) (Homo sapiens, UniProt Q01959); experiment: Fluorescent substrate uptake inhibition, DAT; type: cell-based; settings: 10 μM, CHO cells expressing DAT
T3 construct: expressed in transfected cells; host or cells: CHO (uptake)
T3 sequence (Q01959 whole entry, species assumed): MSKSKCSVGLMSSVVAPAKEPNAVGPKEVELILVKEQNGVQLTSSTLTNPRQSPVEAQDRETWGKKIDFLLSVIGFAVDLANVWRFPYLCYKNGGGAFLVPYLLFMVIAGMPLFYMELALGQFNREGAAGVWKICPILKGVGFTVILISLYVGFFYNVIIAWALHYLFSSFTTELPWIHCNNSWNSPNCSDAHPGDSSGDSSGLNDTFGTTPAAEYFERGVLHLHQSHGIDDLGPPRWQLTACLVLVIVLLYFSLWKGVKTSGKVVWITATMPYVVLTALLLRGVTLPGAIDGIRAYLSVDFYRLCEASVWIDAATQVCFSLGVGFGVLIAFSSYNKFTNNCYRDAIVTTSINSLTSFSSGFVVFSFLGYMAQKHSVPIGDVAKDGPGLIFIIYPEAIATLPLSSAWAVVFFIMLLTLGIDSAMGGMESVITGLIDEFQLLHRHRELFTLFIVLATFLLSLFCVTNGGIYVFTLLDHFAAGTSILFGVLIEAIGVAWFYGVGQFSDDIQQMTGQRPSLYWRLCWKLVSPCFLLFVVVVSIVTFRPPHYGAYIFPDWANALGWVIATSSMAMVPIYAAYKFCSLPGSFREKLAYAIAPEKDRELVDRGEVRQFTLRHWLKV
Procedure: as §3

[8] = target: T4, vesicular monoamine transporter 2 (VMAT2) (Homo sapiens, UniProt Q05940); experiment: Fluorescent substrate uptake inhibition, VMAT2; type: cell-based; settings: 10 μM, transfected cells
T4 construct: expressed in transfected cells
T4 sequence (Q05940 whole entry, species assumed): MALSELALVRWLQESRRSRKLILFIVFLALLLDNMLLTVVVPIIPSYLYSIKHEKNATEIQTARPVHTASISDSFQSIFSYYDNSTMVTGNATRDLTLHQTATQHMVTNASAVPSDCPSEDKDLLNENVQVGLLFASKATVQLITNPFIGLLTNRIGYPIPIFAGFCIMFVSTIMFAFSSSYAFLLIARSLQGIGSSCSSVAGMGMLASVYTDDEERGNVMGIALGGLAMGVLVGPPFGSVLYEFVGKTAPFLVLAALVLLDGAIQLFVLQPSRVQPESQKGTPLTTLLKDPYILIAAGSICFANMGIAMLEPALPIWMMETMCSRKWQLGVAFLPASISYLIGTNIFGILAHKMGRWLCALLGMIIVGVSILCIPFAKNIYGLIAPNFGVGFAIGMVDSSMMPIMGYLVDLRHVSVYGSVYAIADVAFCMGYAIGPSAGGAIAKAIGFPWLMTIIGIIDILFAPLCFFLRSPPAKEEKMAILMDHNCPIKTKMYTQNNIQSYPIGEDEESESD
Procedure: as §3

Work on `CNC1(c2cccc(C)c2)CCCCC1=O` (racemic) [Compound 23rac, 2-(methylamino)-2-(m-tolyl)cyclohexan-1-one] yielded a half-life at 1 μM [1] of 133 min, a microsomal CLint at 1 μM [1] of 10.4 µL/min/mg and a half-life at 1 μM [2] of 52.7 min. The microsomal CLint at 1 μM [2] was 26.3 µL/min/mg, the half-life at 1 μM [3] was 3.6 min and the microsomal CLint at 1 μM [3] was 390 µL/min/mg. For the same molecule, the pKi [4] was 5.34, the inhibition at 10 µM [5] was -1% and the inhibition at 10 µM [6] was 8%. The inhibition at 10 µM [7] was 8.5% and the inhibition at 10 µM [8] was 16%.

In the case of `Cc1cccc(C2(N)CCCCC2=O)c1` (racemic) [Compound 118rac, 2-amino-2-(m-tolyl)cyclohexan-1-one], the half-life at 1 μM [1] was > 145 min, the microsomal CLint at 1 μM [1] was < 9.6 µL/min/mg and the half-life at 1 μM [2] was 84.4 min. The microsomal CLint at 1 μM [2] was 16.4 µL/min/mg, the half-life at 1 μM [3] was 7.2 min and the microsomal CLint at 1 μM [3] was 192 µL/min/mg. It also gave a pKi [4] of 5.35, an inhibition at 10 µM [5] of 16.9% and an inhibition at 10 µM [6] of 19.5%. The inhibition at 10 µM [7] was 23.8% and the inhibition at 10 µM [8] was 36.6%.

For `CNC1(c2ccc(C)cc2)CCCCC1=O` (racemic) [Compound 119rac, 2-(methylamino)-2-(p-tolyl)cyclohexan-1-one], the half-life at 1 μM [1] was > 145 min, the microsomal CLint at 1 μM [1] was < 9.6 µL/min/mg and the half-life at 1 μM [2] was 75.5 min. For the same molecule, the microsomal CLint at 1 μM [2] was 18.4 µL/min/mg, the half-life at 1 μM [3] was 3.3 min and the microsomal CLint at 1 μM [3] was 417 µL/min/mg. For the same molecule, the pKi [4] was 4.78, the inhibition at 10 µM [5] was 42% and the inhibition at 10 µM [6] was 5%. For the same molecule, the inhibition at 10 µM [7] was 10.3% and the inhibition at 10 µM [8] was 48.1%.

With `O=C1CCCC[C@]1(c1ccccc1)N1CCOCC1` [Compound 31R, (R)-2-morpholino-2-phenylcyclohexan-1-one] the half-life at 1 μM [1] was 45.7 min, the microsomal CLint at 1 μM [1] was 30.3 µL/min/mg and the half-life at 1 μM [2] was 11.2 min. It also gave a microsomal CLint at 1 μM [2] of 124 µL/min/mg, a half-life at 1 μM [3] of 6.8 min and a microsomal CLint at 1 μM [3] of 204 µL/min/mg. The pKi [4] was < 4.64, the inhibition at 10 µM [5] was -1.2% and the inhibition at 10 µM [6] was 1.3%. The inhibition at 10 µM [7] was 9.8% and the inhibition at 10 µM [8] was -3.4%.

With `O=C1CCCC[C@@]1(c1ccccc1)N1CCOCC1` [Compound 31S, (S)-2-morpholino-2-phenylcyclohexan-1-one] the half-life at 1 μM [1] was 61 min, the microsomal CLint at 1 μM [1] was 22.7 µL/min/mg and the half-life at 1 μM [2] was 10.8 min. It also gave a microsomal CLint at 1 μM [2] of 128 µL/min/mg, a half-life at 1 μM [3] of 9.6 min and a microsomal CLint at 1 μM [3] of 144 µL/min/mg. For the same molecule, the pKi [4] was < 4.64, the inhibition at 10 µM [5] was -7.9% and the inhibition at 10 µM [6] was 1.6%. It also gave an inhibition at 10 µM [7] of 16.9% and an inhibition at 10 µM [8] of -5.5%.

In the case of `Cc1ccc(C2(N)CCCCC2=O)cc1` (racemic) [Compound 120rac, 2-amino-2-(p-tolyl)cyclohexan-1-one], the half-life at 1 μM [1] was > 145 min, the microsomal CLint at 1 μM [1] was < 9.6 µL/min/mg and the half-life at 1 μM [2] was 112 min. It also gave a microsomal CLint at 1 μM [2] of 12.4 µL/min/mg, a half-life at 1 μM [3] of 3.6 min and a microsomal CLint at 1 μM [3] of 380 µL/min/mg. It also gave a pKi [4] of 4.64, an inhibition at 10 µM [5] of 27.5% and an inhibition at 10 µM [6] of 7.1%. The inhibition at 10 µM [7] was 5.3% and the inhibition at 10 µM [8] was 41%.

Work on `CCN(CC)[C@@]1(c2ccccc2)CCCCC1=O` [Compound 25R, (R)-2-(diethylamino)-2-phenylcyclohexanone] yielded a half-life at 1 μM [1] of 49 min, a microsomal CLint at 1 μM [1] of 28.3 µL/min/mg and a half-life at 1 μM [2] of 8.5 min. The microsomal CLint at 1 μM [2] was 163 µL/min/mg, the half-life at 1 μM [3] was 15.3 min and the microsomal CLint at 1 μM [3] was 90.3 µL/min/mg. It also gave a pKi [4] of 5.26, an inhibition at 10 µM [5] of 26.9% and an inhibition at 10 µM [6] of 20.8%. It also gave an inhibition at 10 µM [7] of 20.8% and an inhibition at 10 µM [8] of -10.3%.

`CC1CN(C2(c3ccccc3)CCCCC2=O)C1` (racemic) [Compound 129rac, 2-(3-methylazetidin-1-yl)-2-phenyl-cyclohexan-1-one] gave a half-life at 1 μM [1] of 134 min, a microsomal CLint at 1 μM [1] of 10.4 µL/min/mg and a half-life at 1 μM [2] of 9.3 min. For the same molecule, the microsomal CLint at 1 μM [2] was 149 µL/min/mg, the half-life at 1 μM [3] was 24.1 min and the microsomal CLint at 1 μM [3] was 57.5 µL/min/mg. It also gave a pKi [4] of 6.28, an inhibition at 10 µM [5] of 28% and an inhibition at 10 µM [6] of 10.6%. For the same molecule, the inhibition at 10 µM [7] was 35.8% and the inhibition at 10 µM [8] was 31.9%.

With `NC1(c2ccc(F)cc2)CCCCC1=O` (racemic) [Compound 117rac, 2-amino-2-(4-fluorophenyl)cyclohexan-1-one] the half-life at 1 μM [1] was > 145 min, the microsomal CLint at 1 μM [1] was < 9.6 µL/min/mg and the half-life at 1 μM [2] was > 145 min. For the same molecule, the microsomal CLint at 1 μM [2] was < 9.6 µL/min/mg, the half-life at 1 μM [3] was > 145 min and the microsomal CLint at 1 μM [3] was < 9.6 µL/min/mg. For the same molecule, the pKi [4] was 5.08, the inhibition at 10 µM [5] was -0.91% and the inhibition at 10 µM [6] was 5%. For the same molecule, the inhibition at 10 µM [7] was 6.8% and the inhibition at 10 µM [8] was 17.1%.

In the case of `COCCN[C@]1(c2ccccc2)CCCCC1=O` [Compound 29S, (5)-2-((2-methoxyethyl)amino)-2-phenylcyclohexan-1-one], the half-life at 1 μM [1] was > 145 min, the microsomal CLint at 1 μM [1] was < 9.6 µL/min/mg and the half-life at 1 μM [2] was 35.7 min. The microsomal CLint at 1 μM [2] was 35.8 µL/min/mg, the half-life at 1 μM [3] was 31.8 min and the microsomal CLint at 1 μM [3] was 43.6 µL/min/mg. It also gave a pKi [4] of 5.09, an inhibition at 10 µM [5] of -12.9% and an inhibition at 10 µM [6] of 4%. For the same molecule, the inhibition at 10 µM [7] was 13.7% and the inhibition at 10 µM [8] was -10.5%.

Molecule `CCN(CC)[C@]1(c2ccccc2)CCCCC1=O` [Compound 25S, (S)-2-(diethylamino)-2-phenylcyclohexanone] has a half-life at 1 μM [1] of 42 min, a microsomal CLint at 1 μM [1] of 33 µL/min/mg and a half-life at 1 μM [2] of 8.6 min. The microsomal CLint at 1 μM [2] was 161 µL/min/mg, the half-life at 1 μM [3] was 14.5 min and the microsomal CLint at 1 μM [3] was 95.4 µL/min/mg. The pKi [4] was 5.28, the inhibition at 10 µM [5] was 45.6% and the inhibition at 10 µM [6] was -0.13%. It also gave an inhibition at 10 µM [7] of 24.9% and an inhibition at 10 µM [8] of 1.7%.

Reference: patent publication US11344510B2, “Arylcyclohexylamine derivatives and their use in the treatment of psychiatric disorders” (Gilgamesh Pharmaceuticals, Inc., priority 2019, dated 2022)
